Data on 2 compounds can be found in ChEMBL document CHEMBL2375258, “Synthesis of (R)-norbgugaine and its potential as quorum sensing inhibitor against Pseudomonas aeruginosa” (Bioorg Med Chem Lett, 2013).

Assay [1] relates to Pseudomonas aeruginosa. The assay can be described thus: Inhibition of quorum sensing system in Pseudomonas aeruginosa ATCC 27853 assessed as inhibition of […] pigmentation at 0.1 to 0.5 mM relative to control.
For assay [2], the system named is Pseudomonas aeruginosa. The experiment in a line: Inhibition of quorum sensing system in Pseudomonas aeruginosa ATCC 27853 assessed as inhibition of swimming motility at 0.1 to 0.5 mM after 24 hrs relative to control.
Assay [3] relates to Pseudomonas aeruginosa. The assay can be described thus: Inhibition of quorum sensing system in Pseudomonas aeruginosa ATCC 27853 assessed as inhibition of rhamnolipid production at 0.1 to 0.5 mM relative to control.
Assay [4] concerns Pseudomonas aeruginosa. The experiment in a line: Ratio of compound activity to salicylic acid activity for inhibition of quorum sensing system-mediated biofilm formation in Pseudomonas aeruginosa ATCC 27853.
Assay [5] relates to Pseudomonas aeruginosa. The experiment in a line: Inhibition of quorum sensing system in Pseudomonas aeruginosa ATCC 27853 assessed as inhibition of LasA at 0.1 to 0.5 mM relative to control.
Assay [6] deals with Pseudomonas aeruginosa. The assay can be described thus: Antibacterial activity against Pseudomonas aeruginosa ATCC 27853 assessed as growth inhibition at 100 ug/mL measured every 2 hrs up to 20 hrs. Format: functional, organism-based.
Assay [7] has as its system Pseudomonas aeruginosa. The experiment in a line: Inhibition of quorum sensing system in Pseudomonas aeruginosa ATCC 27853 assessed as inhibition of biofilm formation at > 1.8 mM after 24 hrs by crystal violet staining method relative to control.
Assay [8] relates to Pseudomonas aeruginosa. The assay can be described thus: Inhibition of quorum sensing system in Pseudomonas aeruginosa ATCC 27853 assessed as inhibition of swarming motility at 0.1 to 0.5 mM after 24 hrs relative to control.
The subject of assay [9] is Pseudomonas aeruginosa. The experiment in a line: Inhibition of quorum sensing system in Pseudomonas aeruginosa ATCC 27853 assessed as inhibition of twitching motility at 0.1 to 0.5 mM after 24 hrs relative to control.
The subject of assay [10] is Pseudomonas aeruginosa. As to conditions: ATCC 27853, 4 mM.
Description: Inhibition of quorum sensing system in Pseudomonas aeruginosa ATCC 27853 assessed as inhibition of biofilm formation at 4 mM after 24 hrs by crystal violet staining method relative to control

Calls of active or inactive are those of the source. The rule behind the calls is not given here.

One may read the inhibition as the change of the read-out against control, counted positive when it falls. Consider `CCCCCCCCCCCCCC[C@@H]1CCCN1`, for which the inhibition in the assay on Pseudomonas aeruginosa [1] is 37%; in the assay on Pseudomonas aeruginosa [2], 33%; in the assay with Pseudomonas aeruginosa [3], 42%; in the assay on Pseudomonas aeruginosa [5], 34%; in the assay on Pseudomonas aeruginosa [7] it was 83%; with Pseudomonas aeruginosa [8], 95%. In the assay with Pseudomonas aeruginosa [9], the inhibition was 15%. The Ratio in the assay on Pseudomonas aeruginosa [4] stood at 2. Besides, the “growth inhibition (GI)” value in the assay on Pseudomonas aeruginosa [6] is “inactive”.

Consider `O=C(O)c1ccccc1O`, for which the inhibition in the assay with Pseudomonas aeruginosa [2] turned out to be 40%; in the assay with Pseudomonas aeruginosa [10], 48%; in the assay on Pseudomonas aeruginosa [8], 60%; with Pseudomonas aeruginosa [9], 35%.
